Where “and” joins values, the source holds several entries; their conditions need not be identical. Identical values can stand only once.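 Exposure lasted 48 hours, with cells grown in 96-well plates and compounds tested at five concentrations. The concentration for 50% growth inhibition is given as GI50. TGI denotes the concentration required for complete inhibition of growth.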
Legend:
Assay in all cases: DTP human tumour cell line panel, 48 h
A549 NSCLC = test system: A549 NSCLC
HL-60(TB) leukemia = test system: HL-60(TB) leukemia
K-562 leukemia = test system: K-562 leukemia
KM12 colon = test system: KM12 colon
LXFL 529 NSCLC = test system: LXFL 529 NSCLC
M19-MEL melanoma = test system: M19-MEL melanoma
MDA-MB-231 breast = test system: MDA-MB-231 breast
RPMI-8226 leukemia = test system: RPMI-8226 leukemia
SK-MEL-5 melanoma = test system: SK-MEL-5 melanoma
SNB-75 CNS = test system: SNB-75 CNS
DMS 273 small cell lung = test system: DMS 273 small cell lung

Row | SMILES | TGI (A549 NSCLC) | TGI (HL-60(TB) leukemia) | TGI (K-562 leukemia) [µM] | TGI (KM12 colon) | TGI (LXFL 529 NSCLC) [µM] | TGI (M19-MEL melanoma) [µM] | TGI (MDA-MB-231 breast) [µM] | TGI (RPMI-8226 leukemia) | TGI (SK-MEL-5 melanoma) [µM] | TGI (SNB-75 CNS) [µM] | TGI (DMS 273 small cell lung) [µM] | GI50 (A549 NSCLC) [µM] | GI50 (HL-60(TB) leukemia) [µM] | GI50 (K-562 leukemia) [µM] | GI50 (KM12 colon) | GI50 (MDA-MB-231 breast) [µM] | GI50 (RPMI-8226 leukemia) [µM] | GI50 (SK-MEL-5 melanoma) | GI50 (SNB-75 CNS) [µM] | GI50 (DMS 273 small cell lung) [µM]
1 | CS(=O)(=O)OCCN(CCOS(C)(=O)=O)c1ccc(C=Nc2ccc3oc(=O)ccc3c2)cc1 | 35.3 µM | 41.3 µM | > 100 | 30.3 µM | 36.4 | 39 | 80.8 | 49.1 µM | 32.8 | 26.1 |  |  |  |  |  |  |  |  |  | 
2 | O=C(O)c1ccc(N=Nc2cc(S(=O)(=O)O)c3cccnc3c2O)cc1 | > 100 µM | > 100 µM | > 100 | > 100 µM |  | > 100 |  | > 100 µM | > 100 | > 100 | > 100 |  |  |  |  |  |  |  |  | 
3 | C[C@H]1COC2(c3ccccc3)CCC(=O)N12 (some centres undefined) | > 100 µM |  | > 100 | > 100 µM |  | > 100 |  | > 100 µM | > 100 | > 100 | > 100 |  |  |  |  |  |  |  |  | 
4 | CC(=O)NCCCCCCNC(C)=O | > 9660 µM | 9000 µM | > 10000 | > 10000 µM |  | > 10000 | > 5620 | > 10000 µM | > 10000 | 8830 | 7250 |  |  |  |  |  |  |  |  | 
5 | CCOC(=O)C1=C(NC(C)(C)C)OCC1=O | > 100 µM | > 100 µM | > 100 | > 100 µM | > 100 |  |  | > 100 µM |  | > 100 |  |  |  |  |  |  |  |  |  | 
6 | CS(=O)c1ccc(-c2nc(-c3ccc(F)cc3)c(-c3ccncc3)[nH]2)cc1 (centres undefined) | > 100 µM | 53.1 µM | > 100 | > 100 µM |  |  | > 100 | 83.6 µM | 50.5 | > 100 |  | 35 | 23 | 25 | 35.9 µM | 48.4 | 26.2 | 20.3 µM | > 44.6 | 
7 | CC(C)=CCC/C(C)=C/CC/C(=C/COP(=O)(OCc1ccc([N+](=O)[O-])o1)N(C)CCCCCl)CC=C(C)C (centres undefined) | 24.2 µM | > 100 µM | > 100 | 17.1 µM |  |  | 22.8 | > 100 µM | 12.1 | 36.8 |  | 8.66 | 4.81 | 9.45 | 2.98 µM | 8.58 | 3.56 | 3.96 µM | 12.1 | 
8 | CCOC(=O)N1C/C(=C/c2ccc(OC)cc2)C(=O)/C(=C/c2ccc(OC)cc2)C1 | 6.96 µM | > 25.4 µM | > 100 | 2.5 µM |  |  | 6.48 | 1.6 µM | 3.17 | 31.1 |  | 2.33 | 3.02 | 1.72 | 0.946 µM | 2.38 | 0.211 | 1.6 µM | 2.93 | 
9 | CC1CCCN(CC(O)CN2CCCc3ccccc32)C1 (centres undefined) | > 100 µM | 46.6 µM | > 100 | > 100 µM |  |  | > 100 | > 100 µM | > 100 | > 100 |  |  |  |  |  |  |  |  |  | 
10 | O=C1C=CN(C2OC(CO)C(O)C2O)C(=O)C1 (centres undefined) | 625 µM and > 2500 µM | 625 µM and > 2500 µM | > 2500 | 625 µM and > 2500 µM |  | 1370 | > 2500 | 496 µM and > 2500 µM | > 2500 | > 2500 | > 2500 | 28.9 | 6.25 |  | 22.3 µM and 39.6 µM |  | 23.1 | > 625 µM and 325 µM |  | > 625
11 | NC(N)=N/N=C/c1cccc(Cl)c1Cl | 21.9 µM | 8.16 µM | 13.9 | 4.91 µM |  |  | 14.7 | 15.1 µM | 6.64 | 26.9 |  | 7.51 | 3.46 | 3.92 | 2.17 µM | 3.63 | 3.39 | 2.33 µM | 11.6 | 
12 | CC(F)(F)c1cc(F)ccc1-c1sc2cc(O)ccc2c1Oc1ccc(/C=C/C(=O)O)cc1 | 29.9 µM | 23.8 µM | 79.2 | 18.4 µM |  |  | 35 | 74.8 µM | 15.3 | 19.8 |  | 10.3 | 4.44 | 6.7 | 4.72 µM | 14.3 | 8.33 | 4.05 µM | 3.52 | 
13 | COc1cc(-c2nc(SCC(=O)Nc3ccc(C(C)=O)cc3)[nH]c(=O)c2C#N)cc(OC)c1OC | > 100 µM | > 100 µM | > 100 | > 100 µM |  |  | > 100 | > 100 µM | > 100 | > 100 |  | > 100 | 35 | 37.7 | 63.6 µM | 38.7 | 29.9 | 31.9 µM | 28.5 | 
